One may read the Ki as a measure of affinity in units of concentration, obtained from inhibition or displacement. The IC90 is the concentration needed for an effect of 90%.

Here are results for five compounds from US6270957A, “Non-Imuunosuppressive cyclosporins and their use in the prevention and treatment of HIV infection” (Wisconsin Alumni Research Foundation, priority 1999, dated 2001).

One data set addresses T1, HIV protease (Human immunodeficiency virus type 1 group M subtype B, UniProt P04585).
T1 construct: HIV protease is an aspartic protease that cleaves the immature viral protein gag-pol into mature structural proteins and enzymes
In words: Inhibition of HIV protease. Type of data set: biochemical. Particulars: read-out: Ki against HIV protease.

The next data set concerns the target cyclophilin (Homo sapiens, UniProt P62937). Briefly: Inhibition of cyclophilin. Type of data set: biochemical. Particulars: read-out: Ki against cyclophilin.
The subject of another data set is HIV-1. Particulars: CEM cells, HIV-1, 6 days, XTT; quadruplicate runs. (In general: Formazan colour is commonly taken as a measure of viable cells.)
For data set [1] the following is noted: compared with DMP-323; cited from earlier work.
A further data set deals with HIV. Particulars: read-out: anti-HIV potency IC90; cited from earlier work.

Structures are written as SMILES. Square brackets hold non-standard residues; d marks the D form. Side chains are listed from the residue outwards. Peptide text beside a SMILES is read from it. * marks the point of attachment. X2 = CC(C)CN(C[C@@H](O)[C@H](Cc1ccc(OCC(=O)*)cc1)NC(=O)O[C@H]1CCOC1)S(=O)(=O)c1ccc(N)cc1; X1 = NC(=O)C[C@H](NC(=O)OCc1ccccc1)C(=O)N[C@@H](Cc1ccccc1)[C@@H](O)CN1CCC[C@H]1C(=O)*; X3 = CC(C)(C)c1cc(OCC(=O)*)ccc1Sc1c(O)cc(-c2ccccc2)oc1=O; NMeLeu(3R-OH) = CN[C@H](C(=O)O)[C@H](O)C(C)C; NMeL = CN[C@@H](CC(C)C)C(=O)O; NMeV = CN[C@H](C(=O)O)C(C)C; dNMeS = CN[C@H](CO)C(=O)O; Abu = CC[C@H](N)C(=O)O

cyclophilin, sequence (P62937 whole entry): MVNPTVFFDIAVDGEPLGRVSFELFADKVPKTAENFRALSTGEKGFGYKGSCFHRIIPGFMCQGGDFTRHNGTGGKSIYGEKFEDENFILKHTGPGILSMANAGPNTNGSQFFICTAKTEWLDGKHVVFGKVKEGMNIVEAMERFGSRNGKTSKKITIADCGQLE
Protocol for HIV-1: The procedure used in the National Cancer Institute's test for agents active against human immunodeficiency virus (HIV) is designed to detect agents acting at any stage of the virus reproductive cycle. The assay basically involves the killing of T4 lymphocytes by HIV. Small amounts of HIV are added to cells, and two cycles of virus reproduction are necessary to obtain the required cell killing. Agents that interact with virions, cells, or virus gene-products to interfere with viral activities will protect cells from cytolysis. The system is automated in several features to accommodate large numbers of candidate agents and is generally designed to detect anti-HIV activity. However, compounds that degenerate or are rapidly metabolized in the culture conditions may not show activity in this screen. All tests are compared with at least one positive (e.g., AZT-treated) control done at the same time under identical conditions.
Candidate agent is dissolved in dimethyl sulfoxide (unless otherwise instructed) then diluted 1:100 in cell culture medium before preparing serial half-log10 dilutions. […]
Individual wells are analyzed spectrophotometrically to quantitate formazan production, and in addition are viewed microscopically for detection of viable cells and confirmation of protective activity. […]

Consider `CC[C@@H]1NC(=O)[C@H]([C@H](O)C(C)C)N(C)C(=O)[C@H](C(C)C)N(C)C(=O)[C@H](CC(C)C)N(C)C(=O)[C@H](CC(C)C)N(C)C(=O)[C@@H](C)NC(=O)[C@H](CCCCNC(=O)[C@H](Cc2ccccc2)NC(=O)[C@@H](NC(=O)[C@@H]2CCCN2C[C@H](O)[C@H](Cc2ccccc2)NC(=O)[C@H](CC(N)=O)NC(=O)OCc2ccccc2)[C@@H](C)CC)NC(=O)[C@H](CC(C)C)N(C)C(=O)[C@H](C(C)C)NC(=O)[C@H](CC(C)C)N(C)C(=O)[C@@H](CO)N(C)C1=O` [Compound 2.8] (cyclo([Abu][dNMeS][NMeL]V[NMeL]K([Phe-Ile-X1])[dA][NMeL][NMeL][NMeV][NMeLeu(3R-OH)])), for which the values for the Ki on HIV protease and at cyclophilin were 1 nM and 20 nM, respectively.
In the case of `CC[C@@H]1NC(=O)[C@H]([C@H](O)C(C)C)N(C)C(=O)[C@H](C(C)C)N(C)C(=O)[C@H](CC(C)C)N(C)C(=O)[C@H](CC(C)C)N(C)C(=O)[C@@H](C)NC(=O)[C@H](CCCCNC(=O)COc2ccc(Sc3c(O)cc(-c4ccccc4)oc3=O)c(C(C)(C)C)c2)NC(=O)[C@H](CC(C)C)N(C)C(=O)[C@H](C(C)C)NC(=O)[C@H](CC(C)C)N(C)C(=O)[C@@H](CO)N(C)C1=O` [Compound 2.9] (cyclo([Abu][dNMeS][NMeL]V[NMeL]K(X3)[dA][NMeL][NMeL][NMeV][NMeLeu(3R-OH)])), the Ki was 3.4 nM on HIV protease and 9.3 nM at cyclophilin.
In the case of `CC[C@@H]1NC(=O)[C@H]([C@H](O)C(C)C)N(C)C(=O)[C@H](C(C)C)N(C)C(=O)[C@H](CC(C)C)N(C)C(=O)[C@H](CC(C)C)N(C)C(=O)[C@@H](C)NC(=O)[C@H](CCCCNC(=O)COc2ccc(C[C@H](NC(=O)O[C@H]3CCOC3)[C@H](O)CN(CC(C)C)S(=O)(=O)c3ccc(N)cc3)cc2)NC(=O)[C@H](CC(C)C)N(C)C(=O)[C@H](C(C)C)NC(=O)[C@H](CC(C)C)N(C)C(=O)[C@@H](CO)N(C)C1=O` [Compound 2.10] (cyclo([NMeLeu(3R-OH)][Abu][dNMeS][NMeL]V[NMeL]K(X2)[dA][NMeL][NMeL][NMeV])), the figures for the Ki on HIV protease and on cyclophilin were 2.3 nM and 6 nM, respectively. Further, in the data set with HIV-1, the “NCI determination of anti-HIV activity” value is listed as “confirmed active”.
For the compound `Nc1cccc(CN2C(=O)N(Cc3cccc(N)c3)[C@H](Cc3ccccc3)[C@H](O)[C@@H](O)[C@H]2Cc2ccccc2)c1` [DMP-450], the plasma concentrations result in data set [1] was “much higher plasma concentrations”.
Consider `O=C(Nc1nc2ccccc2[nH]1)c1cccc(CN2C(=O)N(Cc3cccc(C(=O)Nc4nc5ccccc5[nH]4)c3)[C@H](Cc3ccccc3)[C@H](O)[C@@H](O)[C@H]2Cc2ccccc2)c1` [SD-146], for which the IC90 with HIV was 5.1 nM.
